# Tests used:
# SMARCA2 = molecular target: T1, SMARCA2 (Homo sapiens, UniProt P51531); assay: SMARCA2 Cellular Degradation Assay (Western blot analysis on Jess platform); assay type: cell-based; conditions: for DC50 / Dmax: cellular degradation; for Fold Selectivity SMARCA4/2: ratio DC50 SMARCA4 / DC50 SMARCA2
# T1 construct: endogenous in cells
# Method: SMARCA2 Cellular Degradation Assay
# Western Blot Analysis for SMARCA2 Degradation
# Frozen cell pellets were thawed on ice and resuspended in RIPA lysis buffer (Millipore, Cat. No. 20-188) supplemented with 0.2% SDS (Fisher Scientific, Cat. No. 24730020), 200 mM β-glycerophosphate (Alfa Aesar, Cat. No. J62121), 500 mM NaF (Rigaku, Cat. No. 1008046), protease inhibitor (1 tablet per 10 mL, Sigma, Cat. No. 11836170001), 250 U/μL benzonase (Millipore, Cat. No. 71206), 200 mM sodium orthovanadate (FivePhoton, Cat. No. ActVO-4), and 100 mM PMSF (Sigma, Cat. No. 10837091001). 50 μL lysis buffer was used to lyse each pellet containing 5×10E5-1×10E6 live cells extracted from tumors. Lysates were centrifuged for 10 mins at 20,817×g and lysate supernatants were saved for further analysis. Protein levels were determined by the BCA Assay performed according to manufacturer's protocol (EMD Millipore, Cat. No. 71285-3). Samples were evaluated by Western blot analysis on the Jess Platform (ProteinSimple). Lysates were diluted with complete lysis buffer (as described above) and 5 μg of total proteins were loaded onto each capillary. Samples were prepared using the ProteinSimple EZ Standard Pack 1 (Cat. No. PS-ST01EZ-8; containing tubes with powdered (5×) Fluorescent Master Mix, DTT, and biotinylated ladder) and run using the ProteinSimple 25-Capillary Cartridge kit (Cat. No. SM-W004; containing 25-capillary cartridge Wash reagent, and 10× Sample Buffer reagent), the ProteinSimple Anti-Rabbit HRP Detection Module for Jess (Cat. No. DM-001; containing Antibody Diluent, anti-rabbit secondary antibody, Luminol-S, Peroxide, and Streptavidin-HRP), and the ProteinSimple Anti-Mouse NIR Detection Module for Jess (Cat. No. DM-009; containing Antibody Diluent, anti-mouse NIR secondary antibody, and Streptavidin-NIR) as the following describes. The DTT was reconstituted with 40 μL water to make a 400 mM solution, 20 μL of the DTT solution plus 20 μL of 10× Sample Buffer were added to reconstitute the 5× Fluorescent Master Mix, and 20 μL of H2O was used to reconstitute the biotinylated ladder. For each sample, lysate (4 μL) was combined with 5× Fluorescent Master Mix (1 μL) and heated at 95° C. for 5 minutes. Samples were cooled and stored on ice. Primary antibody solution was made using anti-SMARCA2 antibody (Abcam, Cat. No. 240648, 1:10) and anti-beta-Actin antibody (Cell Signaling Technology, Cat. No. 3700S, 1:25) in antibody diluent. The 25-capillary cartridges were prepared per standard ProteinSimple protocol with each sample in a column. For the biotinylated ladder in column 1, the following were added: 5 µL of ladder sample in Row A, 10 μL of antibody diluent in Rows B and C, 10 μL of Streptavidin-NIR in Row D, and 15 μL of a 50:50 Luminol-s/Peroxide solution in Row E. For each test sample (columns 2-25), the following were added per column: 5 μL of sample in Row A, 10 μL of antibody diluent in Row B, 10 μL of primary antibody solution in Row C, 10 μL of secondary antibody in Row D, and 15 μL of a 50:50 Luminol-S/Peroxide solution in Row E. 500 μL wash buffer was added to the wash buffer wells in the cartridge and cartridge was spun at 1000×g for 5 minutes prior to loading into the Jess. Samples were run using the Chemiluminescence and Fluorescence immunoassays in the ProteinSimple Compass for SimpleWestern program (version 5.0.0). After running, SMARCA2, actin, and background curves were identified in the Compass software; note that in the Compass software, the electropherograms are also visualized as bands for comparison with standard Western blot outputs. The electropherogram area reading for each sample curve was normalized to that of the corresponding actin curve per column following background (capillary background) subtraction using the following equation: […]
# Following normalization, the percentage of SMARCA2 remaining per sample relative to the vehicle control was calculated as follows: […]
# SMARCA4 = molecular target: T2, SMARCA4 (Homo sapiens, UniProt P51532); assay: Cellular degradation assay, SMARCA4 (Table 1); assay type: cell-based
# T2 construct: endogenous in cells
# T2 sequence (P51532 whole entry, species assumed): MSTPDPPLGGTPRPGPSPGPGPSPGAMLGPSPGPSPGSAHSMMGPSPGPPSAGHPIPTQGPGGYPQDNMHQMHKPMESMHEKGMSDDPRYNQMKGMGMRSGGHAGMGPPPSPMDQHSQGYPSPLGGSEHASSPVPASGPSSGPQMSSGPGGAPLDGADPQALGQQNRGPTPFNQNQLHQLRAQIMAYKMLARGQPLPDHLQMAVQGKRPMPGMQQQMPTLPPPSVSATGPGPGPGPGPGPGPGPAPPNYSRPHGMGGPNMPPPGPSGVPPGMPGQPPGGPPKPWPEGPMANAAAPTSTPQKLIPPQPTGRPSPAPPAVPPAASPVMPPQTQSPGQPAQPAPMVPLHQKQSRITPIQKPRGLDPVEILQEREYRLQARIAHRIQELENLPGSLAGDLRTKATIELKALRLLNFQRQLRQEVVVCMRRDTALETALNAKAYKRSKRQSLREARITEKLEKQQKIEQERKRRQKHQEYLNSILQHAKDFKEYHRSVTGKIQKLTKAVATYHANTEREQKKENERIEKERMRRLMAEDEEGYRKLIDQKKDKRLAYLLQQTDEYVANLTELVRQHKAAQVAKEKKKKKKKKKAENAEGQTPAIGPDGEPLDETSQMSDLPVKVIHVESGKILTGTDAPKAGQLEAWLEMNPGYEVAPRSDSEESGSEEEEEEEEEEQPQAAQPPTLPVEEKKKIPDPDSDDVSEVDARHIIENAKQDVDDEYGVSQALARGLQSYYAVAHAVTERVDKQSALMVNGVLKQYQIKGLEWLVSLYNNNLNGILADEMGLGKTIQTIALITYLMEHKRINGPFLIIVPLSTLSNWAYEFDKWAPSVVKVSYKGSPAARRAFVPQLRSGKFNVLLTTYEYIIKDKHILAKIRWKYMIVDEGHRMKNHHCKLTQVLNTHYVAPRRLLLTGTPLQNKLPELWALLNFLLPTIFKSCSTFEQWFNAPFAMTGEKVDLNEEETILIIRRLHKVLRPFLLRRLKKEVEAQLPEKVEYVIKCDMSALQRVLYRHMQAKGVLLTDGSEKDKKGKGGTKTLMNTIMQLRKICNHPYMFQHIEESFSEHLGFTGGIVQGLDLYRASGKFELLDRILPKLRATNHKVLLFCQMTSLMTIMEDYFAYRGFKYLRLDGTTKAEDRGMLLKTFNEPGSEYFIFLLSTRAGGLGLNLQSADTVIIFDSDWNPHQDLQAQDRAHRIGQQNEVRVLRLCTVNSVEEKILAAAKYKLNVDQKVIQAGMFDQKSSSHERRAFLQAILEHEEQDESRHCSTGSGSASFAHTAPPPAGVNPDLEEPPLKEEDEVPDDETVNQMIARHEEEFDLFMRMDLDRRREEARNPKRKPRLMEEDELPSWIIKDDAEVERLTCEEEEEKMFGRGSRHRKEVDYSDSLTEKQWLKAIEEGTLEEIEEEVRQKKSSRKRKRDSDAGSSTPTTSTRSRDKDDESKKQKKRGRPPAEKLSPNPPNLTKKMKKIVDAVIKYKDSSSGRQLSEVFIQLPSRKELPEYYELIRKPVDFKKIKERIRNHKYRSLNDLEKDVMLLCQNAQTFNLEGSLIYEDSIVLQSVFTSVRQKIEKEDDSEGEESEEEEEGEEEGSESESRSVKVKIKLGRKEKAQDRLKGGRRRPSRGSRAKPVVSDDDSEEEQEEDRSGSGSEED
# T1 sequence (P51531 whole entry, species assumed): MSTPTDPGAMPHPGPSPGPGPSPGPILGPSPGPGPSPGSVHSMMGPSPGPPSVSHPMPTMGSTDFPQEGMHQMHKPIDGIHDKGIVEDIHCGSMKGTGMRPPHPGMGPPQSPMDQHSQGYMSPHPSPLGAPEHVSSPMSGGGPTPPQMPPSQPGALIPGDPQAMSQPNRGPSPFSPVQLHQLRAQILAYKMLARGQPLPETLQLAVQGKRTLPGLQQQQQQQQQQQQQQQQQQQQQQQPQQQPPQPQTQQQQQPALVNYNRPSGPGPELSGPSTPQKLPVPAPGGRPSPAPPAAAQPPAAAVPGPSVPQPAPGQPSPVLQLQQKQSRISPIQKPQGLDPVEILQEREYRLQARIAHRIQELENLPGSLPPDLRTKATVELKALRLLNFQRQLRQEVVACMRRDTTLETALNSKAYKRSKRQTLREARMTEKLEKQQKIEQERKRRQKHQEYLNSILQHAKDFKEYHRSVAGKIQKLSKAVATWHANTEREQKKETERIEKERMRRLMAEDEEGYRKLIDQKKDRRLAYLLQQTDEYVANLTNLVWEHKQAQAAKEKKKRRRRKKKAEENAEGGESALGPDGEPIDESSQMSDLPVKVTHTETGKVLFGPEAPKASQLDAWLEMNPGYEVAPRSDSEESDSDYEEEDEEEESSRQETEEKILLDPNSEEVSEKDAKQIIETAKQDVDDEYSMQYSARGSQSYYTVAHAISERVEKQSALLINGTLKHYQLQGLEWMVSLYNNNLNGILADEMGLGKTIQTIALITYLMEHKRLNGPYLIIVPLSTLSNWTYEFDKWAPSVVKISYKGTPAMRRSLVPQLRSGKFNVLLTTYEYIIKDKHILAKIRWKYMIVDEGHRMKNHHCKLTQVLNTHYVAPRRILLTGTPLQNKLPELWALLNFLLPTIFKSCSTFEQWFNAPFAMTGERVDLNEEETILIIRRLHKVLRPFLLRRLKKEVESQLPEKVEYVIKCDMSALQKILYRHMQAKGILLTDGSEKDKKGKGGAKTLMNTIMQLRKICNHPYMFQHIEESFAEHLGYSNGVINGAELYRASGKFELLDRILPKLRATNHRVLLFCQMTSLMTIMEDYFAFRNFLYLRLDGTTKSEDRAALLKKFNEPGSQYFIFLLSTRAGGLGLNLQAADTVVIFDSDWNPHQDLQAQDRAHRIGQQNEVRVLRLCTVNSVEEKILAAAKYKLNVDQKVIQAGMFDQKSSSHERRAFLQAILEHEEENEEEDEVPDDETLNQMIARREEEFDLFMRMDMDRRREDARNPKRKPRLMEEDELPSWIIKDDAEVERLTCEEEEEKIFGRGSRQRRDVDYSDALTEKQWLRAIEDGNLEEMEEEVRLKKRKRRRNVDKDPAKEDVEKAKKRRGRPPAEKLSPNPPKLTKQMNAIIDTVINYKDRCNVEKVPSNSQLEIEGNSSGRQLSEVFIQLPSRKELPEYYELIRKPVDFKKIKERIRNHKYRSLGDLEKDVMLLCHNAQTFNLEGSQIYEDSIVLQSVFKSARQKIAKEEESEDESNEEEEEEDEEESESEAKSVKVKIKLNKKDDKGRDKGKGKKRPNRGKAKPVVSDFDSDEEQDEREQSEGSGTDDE
smiles,measurement,setting,value
"O=C1CC[C@H](c2ccc(N3CCC(CN4CC[C@H]5[C@H](CCN5C(=O)C5(c6ccccc6)CCN(c6cnnc(-c7ccccc7O)c6)CC5)C4)CC3)cc2)C(=O)N1 (mixture of isomers) [Example 155, (3R)-3-[4-(4-{[(3aRS,7aSR)-1-{1-[6-(2-hydroxyphenyl)pyridazin-4-yl]-4-phenylpiperidine-4-carbonyl}-octahydro-1H-pyrrolo[3,2-c]pyridin-5-yl]methyl}piperidin-1-yl)phenyl]piperidine-2,6-dione]",DC50,SMARCA2,13.7 nM
same,Dmax,SMARCA2,75%
same,Fold Selectivity SMARCA4/2,SMARCA2,730
same,Dmax,SMARCA4,51.5%
"CN(C(=O)C1(Oc2ccccc2)CCN(c2cnnc(-c3ccccc3O)c2)CC1)C1CCN(CC2CCN(c3ccc([C@H]4CCC(=O)NC4=O)cc3)CC2)C2(CC2)C1 (mixture of isomers) [Example 168, N-[(7RS)-4-[(1-{4-[(3R)-2,6-dioxopiperidin-3-yl]phenyl}piperidin-4-yl)methyl]-4-azaspiro[2.5]octan-7-yl]-1-[6-(2-hydroxyphenyl)pyridazin-4-yl]-N-methyl-4-phenoxypiperidine-4-carboxamide]",DC50,SMARCA2,18.4 nM
same,Dmax,SMARCA2,90.6%
same,Fold Selectivity SMARCA4/2,SMARCA2,6
same,DC50,SMARCA4,113 nM
same,Dmax,SMARCA4,77.3%
"O=C1CCC(NC(=O)c2cc(N3CCN(C(=O)C4(c5ccccc5)CCN(c5cnnc(-c6ccccc6O)c5)CC4)CC3)ccn2)C(=O)N1 (racemic) [Example 1, rac-N-[(3r)-2,6-dioxopiperidin-3-yl]-4-(4-{1-[6-(2-hydroxyphenyl)pyridazin-4-yl]-4-phenylpiperidine-4-carbonyl}piperazin-1-yl)pyridine-2-carboxamide]",Dmax,SMARCA2,35.2%
same,Fold Selectivity SMARCA4/2,SMARCA2,1
same,Dmax,SMARCA4,13%
"C[C@H](Oc1ccc(C2CCC(=O)NC2=O)cc1)C1CCN(C(=O)C2(c3ccccc3)CCN(c3cnnc(-c4ccccc4O)c3)CC2)CC1 (mixture of isomers) [Example 2, (3RS)-3-{4-[(1S)-1-(1-{1-[6-(2-hydroxyphenyl)pyridazin-4-yl]-4-phenylpiperidine-4-carbonyl}piperidin-4-yl)ethoxy]phenyl}piperidine-2,6-dione]",Dmax,SMARCA2,53.5%
same,Fold Selectivity SMARCA4/2,SMARCA2,1
same,Dmax,SMARCA4,22.1%
"C[C@@H](Oc1ccc(C2CCC(=O)NC2=O)cc1)C1CCN(C(=O)C2(c3ccccc3)CCN(c3cnnc(-c4ccccc4O)c3)CC2)CC1 (mixture of isomers) [Example 3, (3RS)-3-{4-[(1R)-1-(1-{1-[6-(2-hydroxyphenyl)pyridazin-4-yl]-4-phenylpiperidine-4-carbonyl}piperidin-4-yl)ethoxy]phenyl}piperidine-2,6-dione]",Dmax,SMARCA2,54.2%
same,Fold Selectivity SMARCA4/2,SMARCA2,1
same,Dmax,SMARCA4,17.5%
"O=C1CCC(c2ccc(OC3CCN(C(=O)C4(c5ccccc5)CCN(c5cnnc(-c6ccccc6O)c5)CC4)CC3)cc2)C(=O)N1 (racemic) [Example 4, rac-(3R)-3-{4-[(1-{1-[6-(2-hydroxyphenyl)pyridazin-4-yl]-4-phenylpiperidine-4-carbonyl}piperidin-4-yl)oxy]phenyl}piperidine-2,6-dione]",Dmax,SMARCA2,16.4%
same,Fold Selectivity SMARCA4/2,SMARCA2,1
same,Dmax,SMARCA4,9.4%
"O=C1CCC(c2ccc(OCC3CCN(C(=O)C4(c5ccccc5)CCN(c5cnnc(-c6ccccc6O)c5)CC4)CC3)cc2)C(=O)N1 (racemic) [Example 5, rac-(3R)-3-{4-[(1-{1-[6-(2-hydroxyphenyl)pyridazin-4-yl]-4-phenylpiperidine-4-carbonyl}piperidin-4-yl)methoxy]phenyl}piperidine-2,6-dione]",DC50,SMARCA2,463 nM
same,Dmax,SMARCA2,59.8%
same,Fold Selectivity SMARCA4/2,SMARCA2,21.62
same,Dmax,SMARCA4,22.6%
"O=C1CCC(c2ccc(N3CCC(CN4CCN(C(=O)C5(c6ccccc6)CCN(c6cnnc(-c7ccccc7O)c6)CC5)CC4)CC3)cc2)C(=O)N1 (racemic) [Example 6, rac-(3R)-3-(4-{4-[(4-{1-[6-(2-hydroxyphenyl)pyridazin-4-yl]-4-phenylpiperidine-4-carbonyl}piperazin-1-yl)methyl]piperidin-1-yl}phenyl)piperidine-2,6-dione]",DC50,SMARCA2,121 nM
same,Dmax,SMARCA2,63.6%
same,Fold Selectivity SMARCA4/2,SMARCA2,82.86
same,Dmax,SMARCA4,31.5%
"O=C1CCC(c2ccc(N3CCC(CNC4CCN(C(=O)C5(c6ccccc6)CCN(c6cnnc(-c7ccccc7O)c6)CC5)CC4)CC3)cc2)C(=O)N1 (racemic) [Example 7, rac-(3R)-3-[4-(4-{[(1-{1-[6-(2-hydroxyphenyl)pyridazin-4-yl]-4-phenylpiperidine-4-carbonyl}piperidin-4-yl)amino]methyl}piperidin-1-yl)phenyl]piperidine-2,6-dione]",Dmax,SMARCA2,53.1%
same,Fold Selectivity SMARCA4/2,SMARCA2,1
same,Dmax,SMARCA4,32%
"O=C1CCC(c2ccc(OCC3CCN(CC4CCN(C(=O)C5(c6ccccc6)CCN(c6cnnc(-c7ccccc7O)c6)CC5)CC4)CC3)cc2)C(=O)N1 (racemic) [Example 11, rac-(3R)-3-[4-({1-[(1-{1-[6-(2-hydroxyphenyl)pyridazin-4-yl]-4-phenylpiperidine-4-carbonyl}piperidin-4-yl)methyl]piperidin-4-yl}methoxy)phenyl]piperidine-2,6-dione]",DC50,SMARCA2,21.2 nM
same,Dmax,SMARCA2,69.1%
same,Fold Selectivity SMARCA4/2,SMARCA2,472.68
same,Dmax,SMARCA4,38.9%
"O=C1CCC(c2ccc(OC3CCN(CC4CCN(C(=O)C5(c6ccccc6)CCN(c6cnnc(-c7ccccc7O)c6)CC5)CC4)CC3)cc2)C(=O)N1 (racemic) [Example 12, rac-(3R)-3-[4-({1-[(1-{1-[6-(2-hydroxyphenyl)pyridazin-4-yl]-4-phenylpiperidine-4-carbonyl}piperidin-4-yl)methyl]piperidin-4-yl}oxy)phenyl]piperidine-2,6-dione]",DC50,SMARCA2,144 nM
same,Dmax,SMARCA2,61.7%
same,Fold Selectivity SMARCA4/2,SMARCA2,69.67
same,Dmax,SMARCA4,36.9%
"O=C1CCC(c2ccc(OC3CCN(C(=O)C4CCN(C(=O)C5(c6ccccc6)CCN(c6cnnc(-c7ccccc7O)c6)CC5)CC4)CC3)cc2)C(=O)N1 (racemic) [Example 13, rac-(3R)-3-(4-{[1-(1-{1-[6-(2-hydroxyphenyl)pyridazin-4-yl]-4-phenylpiperidine-4-carbonyl}piperidine-4-carbonyl)piperidin-4-yl]oxy}phenyl)piperidine-2,6-dione]",Dmax,SMARCA2,40.3%
same,Fold Selectivity SMARCA4/2,SMARCA2,1
same,Dmax,SMARCA4,12.3%
"O=C1CCC(c2ccc(OCC3CCN(C(=O)C4CCN(C(=O)C5(c6ccccc6)CCN(c6cnnc(-c7ccccc7O)c6)CC5)CC4)CC3)cc2)C(=O)N1 (racemic) [Example 14, rac-(3R)-3-(4-{[1-(1-{1-[6-(2-hydroxyphenyl)pyridazin-4-yl]-4-phenylpiperidine-4-carbonyl}piperidine-4-carbonyl)piperidin-4-yl]methoxy}phenyl)piperidine-2,6-dione]",Dmax,SMARCA2,22.2%
same,Fold Selectivity SMARCA4/2,SMARCA2,1
same,Dmax,SMARCA4,15.2%
"O=C1CCC(c2ccc(N3CCN(C(=O)CC4CCN(C(=O)C5(c6ccccc6)CCN(c6cnnc(-c7ccccc7O)c6)CC5)CC4)CC3)cc2)C(=O)N1 (racemic) [Example 18, rac-(3R)-3-(4-{4-[2-(1-{1-[6-(2-hydroxyphenyl)pyridazin-4-yl]-4-phenylpiperidine-4-carbonyl}piperidin-4-yl)acetyl]piperazin-1-yl}phenyl)piperidine-2,6-dione]",Dmax,SMARCA2,44.1%
same,Fold Selectivity SMARCA4/2,SMARCA2,1
same,Dmax,SMARCA4,27.7%
